Test results from patent US9309263B2, “Fused multi-cyclic sulfone compounds as inhibitors of beta-secretase and methods of use thereof” (AMGEN INC., priority 2013, dated 2016).
Read-outs that look alike come from different tables or passages of the source.

How the values were obtained:
[1] = test system: Aβ 40 in conditioned medium of cells stably expressing Amyloid Precursor Protein (APP); assay: In vitro BACE cell-based assay (Aβ 40 sandwich ELISA)
Summary of the method: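 Aβ40 in conditioned medium measured by pAb40/biotin-6E10 sandwich ELISA with time-resolved europium fluorescence, after 24 h exposure of stable APP cells to compounds (10-point series starting 100 μM or 10 μM; 0.1% DMSO). IC50 fitted from percent of control against concentration.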

Cathepsin D (Cat D) = Cathepsin D (Cat D) (Homo sapiens, UniProt P07339); assay: In vitro enzymatic Cathepsin D (Cat D) FRET assay; type: biochemical
Summary of the method: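 FRET peptide substrate (20 nM) is cleaved by CHO-derived recombinant enzyme (9 nM) for 1 h after a 1 h inhibitor pre-incubation, at pH 3.5 in citrate buffer with 5 mM CHAPS and 10% DMSO. Tris addition ends the reaction; fluorescence measured at 500 nm excitation, 580 nm emission.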

[2] = target: Beta Secretase enzyme (BACE) (Homo sapiens, UniProt P56817); assay: In vitro enzymatic BACE FRET assay; type: biochemical; details: read-out: BACE1 FRET assay IC50
Summary of the method: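 Cleavage of a quenched 50 nM FRET peptide substrate, read as fluorescence (excitation 488 nm, […]) after 1 h and Tris quench to neutrality. Buffer: 0.05 M acetate pH 4.2 with 10% DMSO and 100 uM genapol. Inhibitor dilutions were pre-incubated 1 h with 0.2 nM enzyme.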

[3] = Homo sapiens, HEK293, HEK cell, average IC50
[4] = Homo sapiens, HEK293, average IC50, HEK cell assay, Aβ 40 readout
[5] = Cathepsin D FRET assay, read-out: CatD IC50
[6] = average IC50, in vitro enzymatic BACE FRET assay
[7] = Homo sapiens, HEK293, HEK cells, average IC50

Beta Secretase enzyme (BACE), sequence (P56817 46-501): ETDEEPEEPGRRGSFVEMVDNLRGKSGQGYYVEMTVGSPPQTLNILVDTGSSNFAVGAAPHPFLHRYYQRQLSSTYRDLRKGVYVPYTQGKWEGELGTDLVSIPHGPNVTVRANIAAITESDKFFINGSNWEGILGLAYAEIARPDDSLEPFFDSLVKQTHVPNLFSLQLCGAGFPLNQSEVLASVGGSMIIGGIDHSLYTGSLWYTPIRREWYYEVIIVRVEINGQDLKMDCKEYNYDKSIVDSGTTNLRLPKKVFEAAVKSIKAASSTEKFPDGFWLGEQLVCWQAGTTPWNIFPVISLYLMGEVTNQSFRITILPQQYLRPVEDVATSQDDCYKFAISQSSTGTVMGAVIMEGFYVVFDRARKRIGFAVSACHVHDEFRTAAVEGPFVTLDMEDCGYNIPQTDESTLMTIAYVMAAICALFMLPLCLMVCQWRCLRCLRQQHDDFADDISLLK
Cathepsin D (Cat D), sequence (P07339 65-412, species assumed): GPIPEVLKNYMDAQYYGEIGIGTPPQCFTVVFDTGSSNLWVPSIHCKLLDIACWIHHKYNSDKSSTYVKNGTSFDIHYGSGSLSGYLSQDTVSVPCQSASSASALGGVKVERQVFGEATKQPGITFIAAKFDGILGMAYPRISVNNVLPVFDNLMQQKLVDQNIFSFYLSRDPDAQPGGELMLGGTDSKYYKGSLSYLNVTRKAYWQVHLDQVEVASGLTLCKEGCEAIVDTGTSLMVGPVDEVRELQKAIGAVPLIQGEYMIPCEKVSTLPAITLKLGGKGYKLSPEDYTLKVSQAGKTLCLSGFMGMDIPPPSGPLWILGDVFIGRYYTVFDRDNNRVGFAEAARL

`C[C@H]1C[C@@H]2[C@](C)(N=C(N)C(C)(C)S2(=O)=O)c2cc(NC(=O)c3cnc(OCC(F)(F)F)cn3)ccc2O1` [Example 74, N-((4aR,6S,11bR)-2-amino-3,3,6,11b-tetramethyl-4,4-dioxido-4a,5,6,11b-tetrahydro-3H-[1]benzoxepino[4,5-b][1,4]thiazin-10-yl)-5-(2,2,2-trifluoroethoxy)-2-pyrazinecarboxamide] gave an IC50 [1, 3] of 0.007 µM, an IC50 (Cathepsin D (Cat D); read-out: CatD IC50) of 871 µM and an IC50 ([2]; average IC50) of 0.003 µM.
For `COc1cnc(C(=O)Nc2ccc3c(c2)[C@@]2(C)N=C(N)C(C)(C)S(=O)(=O)[C@@H]2CCO3)c(C)c1` [Example 158, N-((4aR,11bR)-2-amino-3,3,11b-trimethyl-4,4-dioxido-4a,5,6,11b-tetrahydro-3H-[1]benzoxepino[4,5-b][1,4]thiazin-10-yl)-5-methoxy-3-methyl-2-pyridinecarboxamide], the IC50 [1, 4] was 0.007 µM, the IC50 (Cathepsin D (Cat D); [5]) was over 400 µM and the IC50 [2, 6] was 0.021 µM.
`COc1cnc(C(=O)Nc2ccc3c(c2)[C@@]2(C)N=C(N)C(C)(C)S(=O)(=O)[C@H]2CCO3)c(C)c1` [Example 161, N-((4aS,11bR)-2-amino-3,3,11b-trimethyl-4,4-dioxido-4a,5,6,11b-tetrahydro-3H-[1]benzoxepino[4,5-b][1,4]thiazin-10-yl)-5-methoxy-3-methyl-2-pyridinecarboxamide] was tested, and the IC50 [1, 7] was 0.008 µM, the IC50 (Cathepsin D (Cat D); read-out: CatD IC50) was 878 µM and the IC50 ([2]; average IC50) was 0.032 µM.
Compound `CC1(C)C(N)=N[C@]2(CF)c3cc(Nc4nccc5cc(Cl)cnc45)ccc3OCC[C@@H]2S1(=O)=O` [Example 154, (4aS,11bS)-N1^~10^~-(3-chloro-1,7-naphthyridin-8-yl)-11b-(fluoromethyl)-3,3-dimethyl-4a,5,6,11b-tetrahydro-3H-[1]benzoxepino[4,5-b][1,4]thiazine-2,10-diamine 4,4-dioxide] has an IC50 ([1]; average IC50, HEK cell assay, Aβ 40 readout) of 0.032 µM, an IC50 (Cathepsin D (Cat D); [5]) of 462 µM and an IC50 [2, 6] of 0.003 µM.
In the case of `COc1cnc2c(Nc3ccc4c(c3)[C@@]3(C)N=C(N)C(C)(C)S(=O)(=O)[C@@H]3CCO4)nccc2n1` [Example 156, (4aR,11bR)-N^~10^~-(2-methoxypyrido[3,4-b]pyrazin-5-yl)-3,3,11b-trimethyl-4a,5,6,11b-tetrahydro-3H-[1]benzoxepino[4,5-b][1,4]thiazine-2,10-diamine 4,4-dioxide], the IC50 [1, 4] is reported as 0.014 µM, the IC50 (Cathepsin D (Cat D); [5]) is reported as 1030 µM and the IC50 [2, 6] is reported as 0.011 µM.
`Cc1cc(Cl)cnc1C(=O)Nc1ccc2c(c1)[C@@]1(C)N=C(N)C(C)(C)S(=O)(=O)[C@@H]1CCO2` [Example 6a, N-((4aR,11bR)-2-amino-3,3,11b-trimethyl-4,4-dioxido-4a,5,6,11b-tetrahydro-3H-benzo[6,7]oxepino[4,5-b][1,4]thiazin-10-yl)-5-chloro-3-methylpicolinamide] was tested, and the IC50 [1, 3] was 0.006 µM, the IC50 (Cathepsin D (Cat D); read-out: CatD IC50) was over 100 µM and the IC50 ([2]; average IC50) was 0.002 µM.
In the case of `Cc1cc(Cl)cnc1C(=O)Nc1ccc2c(c1)[C@@]1(C)N=C(N)C(C)(C)S(=O)(=O)[C@H]1CCO2` [Example 6b, N-((4aS,11bR)-2-amino-3,3,11b-trimethyl-4,4-dioxido-4a,5,6,11b-tetrahydro-3H-benzo[6,7]oxepino[4,5-b][1,4]thiazin-10-yl)-5-chloro-3-methylpicolinamide], the IC50 [1, 3] is reported as 0.004 µM, the IC50 (Cathepsin D (Cat D); read-out: CatD IC50) is reported as over 100 µM and the IC50 ([2]; average IC50) is reported as 0.003 µM.
`Cc1nc(OCC2CC2)cnc1C(=O)Nc1ccc2c(c1)[C@@]1(C)N=C(N)C(C)(C)S(=O)(=O)[C@@H]1CCO2` [Example 178, N-((4aR,11bR)-2-amino-3,3,11b-trimethyl-4,4-dioxido-4a,5,6,11b-tetrahydro-3H-benzo[6,7]oxepino[4,5-b][1,4]thiazin-10-yl)-5-(cyclopropylmethoxy)-3-methylpyrazine-2-carboxamide] was tested, and the IC50 [1, 7] was 0.028 µM, the IC50 (Cathepsin D (Cat D); read-out: CatD IC50) was 586 µM and the IC50 ([2]; average IC50) was 0.01 µM.
For `CC1(C)C(N)=N[C@]2(C)c3cc(NC(=O)c4ncc(Cl)cc4Cl)ccc3CCC[C@@H]2S1(=O)=O` [Example 36, N-((4aS,11bR)-2-amino-3,3,11b-trimethyl-4,4-dioxido-3,4a,5,6,7,11b-hexahydrobenzo[3,4]cyclohepta[1,2-b][1,4]thiazin-10-yl)-3,5-dichloro-2-pyridinecarboxamide], the IC50 [1, 3] was 0.29 µM, the IC50 (Cathepsin D (Cat D); read-out: CatD IC50) was over 400 µM and the IC50 ([2]; average IC50) was 0.062 µM.
For `Cc1cc(Cl)cnc1C(=O)Nc1ccc2c(c1)[C@@]1(C)N=C(N)C(C)(C)S(=O)(=O)[C@@H]1C[C@@H](C)O2` [Example 180, N-((4aR,6R,11bR)-2-amino-3,3,6,11b-tetramethyl-4,4-dioxido-4a,5,6,11b-tetrahydro-3H-[1]benzoxepino[4,5-b][1,4]thiazin-10-yl)-5-chloro-3-methyl-2-pyridinecarboxamide], the IC50 [1, 7] was 0.005 µM, the IC50 (Cathepsin D (Cat D); read-out: CatD IC50) was 90.4 µM and the IC50 ([2]; average IC50) was 0.003 µM.
`C[C@H]1C[C@@H]2[C@](C)(N=C(N)C(C)(C)S2(=O)=O)c2cc(Nc3nccc4cc(C(F)(F)F)cnc34)ccc2O1` [Example 131, (4aR,6S,11bR)-2-amino-3,3,6,11b-tetramethyl-10-((3-(trifluoromethyl)-1,7-naphthyridin-8-yl)amino)-4a,5,6,11b-tetrahydro-3H-benzo[6,7]oxepino[4,5-b][1,4]thiazine 4,4-dioxide] gave an IC50 [1, 4] of 0.005 µM, an IC50 (Cathepsin D (Cat D); [5]) of 443 µM and an IC50 [2, 6] of 0.005 µM.
In the case of `C#CCOc1cnc(C(=O)Nc2ccc3c(c2)[C@@]2(C)N=C(N)C(C)(C)S(=O)(=O)[C@@H]2C[C@H](C)O3)cn1` [Example 142, N-((4aR,6S,11bR)-2-amino-3,3,6,11b-tetramethyl-4,4-dioxido-4a,5,6,11b-tetrahydro-3H-[1]benzoxepino[4,5-b][1,4]thiazin-10-yl)-5-(2-propyn-1-yloxy)-2-pyrazinecarboxamide], the IC50 [1, 4] is reported as 0.0005 µM, the IC50 (Cathepsin D (Cat D); [5]) is reported as 215 µM and the IC50 [2, 6] is reported as 0.001 µM.
`Cc1cc(OCC(F)(F)F)cnc1C(=O)Nc1ccc2c(c1)[C@@]1(C)N=C(N)C(C)(C)S(=O)(=O)[C@@H]1CCO2` [Example 187, N-((4aR,11bR)-2-amino-3,3,11b-trimethyl-4,4-dioxido-4a,5,6,11b-tetrahydro-3H-[1]benzoxepino[4,5-b][1,4]thiazin-10-yl)-3-methyl-5-(2,2,2-trifluoroethoxy)-2-pyridinecarboxamide] gave an IC50 [1, 7] of 0.064 µM, an IC50 (Cathepsin D (Cat D); read-out: CatD IC50) of 1240 µM and an IC50 ([2]; average IC50) of 0.016 µM.
`COc1cnc(C(=O)Nc2ccc3c(c2)[C@@]2(C)N=C(N)C(C)(C)S(=O)(=O)[C@]2(F)CCO3)cn1` [Example 67, N-((4aR,11bR)-2-amino-4a-fluoro-3,3,11b-trimethyl-4,4-dioxido-4a,5,6,11b-tetrahydro-3H-[1]benzoxepino[4,5-b][1,4]thiazin-10-yl)-5-methoxy-2-pyrazinecarboxamide] showed an IC50 [1, 3] of 0.115 µM, an IC50 (Cathepsin D (Cat D); read-out: CatD IC50) of 2920 µM and an IC50 (Cathepsin D (Cat D); text summary referring to data in Table 2) of over 1200 µM. The IC50 ([2]; average IC50) was 0.022 µM.
In the case of `COCCOc1cnc2c(Nc3ccc4c(c3)[C@@]3(C)N=C(N)C(C)(C)S(=O)(=O)[C@@H]3C[C@H](C)O4)nccc2n1` [Example 139, (4aR,6S,11bR)-N^~10^~-(2-(2-methoxyethoxy)pyrido[3,4-b]pyrazin-5-yl)-3,3,6,11b-tetramethyl-4a,5,6,11b-tetrahydro-3H-[1]benzoxepino[4,5-b][1,4]thiazine-2,10-diamine 4,4-dioxide], the IC50 [1, 4] is reported as 0.008 µM, the IC50 (Cathepsin D (Cat D); [5]) is reported as 304 µM and the IC50 [2, 6] is reported as 0.007 µM.
Compound `COc1cnc2c(Nc3ccc4c(c3)[C@@]3(C)N=C(N)C(C)(C)S(=O)(=O)[C@@H]3C[C@H](C)O4)ncc(F)c2c1` [Example 52, (4aR,6S,11bR)-N^~10^~-(5-fluoro-3-methoxy-1,7-naphthyridin-8-yl)-3,3,6,11b-tetramethyl-4a,5,6,11b-tetrahydro-3H-[1]benzoxepino[4,5-b][1,4]thiazine-2,10-diamine 4,4-dioxide] has an IC50 [1, 3] of 0.022 µM, an IC50 (Cathepsin D (Cat D); read-out: CatD IC50) of 174 µM and an IC50 ([2]; average IC50) of 0.014 µM.
